According to patent US4894340A, “Microbial sulfhydryl oxidase and method” (priority 1987, dated 1990):
Like-named read-outs stand apart in the source and are kept apart here.

Assays:
[1] = tested on: A. niger sulfhydryl oxidase; assay: Polarographic O2 depletion assay of sulfhydryl oxidase with thiol compounds and substrates of other oxidases; format: biochemical, Aspergillus niger; settings: for Activity toward substrates of other known oxidases: test compound 10 mM in 40 mM sodium acetate at pH 5.5; for kcat (app)/Km (app) (head is drawing 1) / kcat (app) / Km: purified enzyme, polarographic assay; for kcat (app) / Km: double reciprocal plot; for Km: read-out: Km (app)
Protocol: Two assays have been employed to determine SHX activity. The first assay is based on the depletion of O2 from assay mixtures containing thiol compounds; oxygen depletion is measured polarographically by oxygen electrode techniques. One unit of SHX is defined as that amount of enzyme which would utilize or consume 1 umol of O2 per minute under the conditions of the assay.
Rates of O2 depletion by the purified enzyme were measured at selected concentrations of GSH, cysteine, dithiothreitol and 2-mercapto-ethanol. […] Kinetic constants were calculated from the double reciprocal plot by linear regression fitting of the data points.
The enzyme was tested for activity toward substrates of other known oxidases, including D-glucose, D-fructose, L-lysine, D-lysine, benzylamine, xanthine, putrescine, catechol, nicotinamide adenine dinucleotide (reduced) ("NADH") and nicotinamide adenine dinucleotide phosphate (reduced) ("NADPH").
In a typical assay, 2.9 mL of a mixture consisting of a thiol compound in an appropriate buffer was equilibrated with stirring to 25° C. After the vial was sealed with the electrode, a volume of 0.1 mL of enzyme solution was injected into the assay mixture. […] One unit of sulfhydryl oxidase was defined as that amount of enzyme which would deplete 1 umole of O2 per minute under the conditions of the assay. Unless otherwise indicated, the assay mixture contained 8 mM GSH in 40 mM acetate buffer, pH 5.5, at 25° C.

sulfhydryl apooxidase = assay: Reactivation of sulfhydryl apooxidase by resolved flavins or standards; format: biochemical, Aspergillus niger; settings: for Activity: apooxidase after 14 hours incubation at 0° C. with resolved flavins or standards
From the text: At […], FAD is weakly fluorescent owing to quenching by its adenine moiety. FMN and other nonadenylated flavins, on the other hand, fluoresce strongly under both conditions of pH (Bessey et al., 1949); Cerletti and Siliprandi, 1958). Thus the ratio of fluorescence at basic pH to that at acidic pH distinguishes adenylated from nonadenylated flavins. […] When the isolated flavins were recombined with sulfhydryl apooxidase, only the product of treatment by boiling was capable of restoring activity to the enzyme.
Determination of sulfhydryl oxidase activity was based upon depletion of O2 from assay mixtures containing thiol compounds, as measured with a Yellow Springs Instruments oxygen monitor (model 500) equipped with a polarographic Clark-type electrodes. In a typical assay, 2.9 mL of a mixture consisting of a thiol compound in an appropriate buffer was equilibrated with stirring to 25° C. After the vial was sealed with the electrode, a volume of 0.1 mL of enzyme solution was injected into the assay mixture. The rate of oxygen depletion was constant during the first 30 seconds of the assay; thus, the initial rate of O2 depletion was taken to be sulfhydryl oxidase activity under the prevailing conditions. One unit of sulfhydryl oxidase was defined as that amount of enzyme which would deplete 1 umole of O2 per minute under the conditions of the assay. Unless otherwise indicated, the assay mixture contained 8 mM GSH in 40 mM acetate buffer, pH 5.5, at 25° C.
In reactivation experiments, freshly prepared apoenzyme was combined with flavin solution and 0.1M sodium phosphate buffer, pH 7.0, in the volume proportions 1:1:2. This mixture was incubated for 14 to 16 hours at 0° C. After the incubation period, the enzyme was separated from excess free flavin by passage through a Pharmacia PD-10 column equilibrated and eluted with 40 mM acetate buffer, pH 5.5.
The flavin component was also extracted from the enzyme by two other methods. Dialyzed sulfhydryl oxidase was boiled for 5 minutes with protection from light and cooled quickly by immersion in ice water. […]

[2] = tested on: A. niger sulfhydryl oxidase; assay: NAD/NADP as electron acceptors, absorbance at 340 nm; format: biochemical, Aspergillus niger; settings: in the presence of sulfhydryl oxidase and 4 mM GSH
[3] = tested on: A. niger sulfhydryl oxidase; assay: Sulfhydryl oxidase activity in presence of chelating agents; format: biochemical, Aspergillus niger; settings: 1 mM chelating agent in 0.05M phosphate buffer, pH 7.0, even after overnight incubation
From the text: Since flavin oxidases containing essential metal ions are known to exist, sulfhydryl oxidase was examined for changes in activity upon treatment with the chelating agents.

[4] = molecular target: A. niger sulfhydryl oxidase; assay: Spectral titration with sodium sulfite (flavin-sulfite complex); format: binding, Aspergillus niger; settings: read-out: Dissociation constant Kd of flavin-sulfite complex
Protocol: FIG. 3: Absorption spectra of purified sulfhydryl oxidase after reaction with sodium sulfite at pH 6, showing bleaching of the visible bond of SHX spectrum. Each spectrum was recorded 10 minutes after the addition of a small aliquot of sodium sulfite to a cuvette containing 1.8 mg/mL SHX in 50 mM sodium phosphate. Sulfite concentrations after each addition were 0 mM(1), 0.99 mM(2), 2.44 mM(3) and 152 mM(4).
Additional spectral analysis confirms that the SHX of the present invention is a flavoprotein. Most flavin oxidases, but not flavin dehydrogenases, react with sodium sulfite to form a bleached flavin-sulfite complex (Massey et al., 1969). The spectral change incurred by incubation of sulfhydryl oxidase with sodium sulfite at varying concentrations is show in FIG. 3. The dissociation constant Kd =[SHX][SO2 ]/[SHX-SO2 ]for the sulfhydryl oxidase flavin-sulfite complex was calculated from the first few spectra under the assumption that spectrum 4 in FIG. 3 represented full conversion of the enzyme to the sulfite complex, and that the initial excess of sulfite was so large that its concentration was essentially unchanged at equilibrium. The first assumption was justified by the fact that spectrum 4 (152.8 mM sulfite) was identical with the spectrum recorded when the sulfite concentration was just 42.8 mM (not shown).

[5] = molecular target: T1, flavin sulfhydryl oxidase from rat epididymal fluid (Rattus norvegicus, UniProt Q6IUU3); settings: concentrations as high as 0.1M; cited from earlier work
T1 construct: flavin sulfhydryl oxidase from rat epididymal fluid; host or cells: rat epididymal fluid as printed
T1 sequence (Q6IUU3 33-750): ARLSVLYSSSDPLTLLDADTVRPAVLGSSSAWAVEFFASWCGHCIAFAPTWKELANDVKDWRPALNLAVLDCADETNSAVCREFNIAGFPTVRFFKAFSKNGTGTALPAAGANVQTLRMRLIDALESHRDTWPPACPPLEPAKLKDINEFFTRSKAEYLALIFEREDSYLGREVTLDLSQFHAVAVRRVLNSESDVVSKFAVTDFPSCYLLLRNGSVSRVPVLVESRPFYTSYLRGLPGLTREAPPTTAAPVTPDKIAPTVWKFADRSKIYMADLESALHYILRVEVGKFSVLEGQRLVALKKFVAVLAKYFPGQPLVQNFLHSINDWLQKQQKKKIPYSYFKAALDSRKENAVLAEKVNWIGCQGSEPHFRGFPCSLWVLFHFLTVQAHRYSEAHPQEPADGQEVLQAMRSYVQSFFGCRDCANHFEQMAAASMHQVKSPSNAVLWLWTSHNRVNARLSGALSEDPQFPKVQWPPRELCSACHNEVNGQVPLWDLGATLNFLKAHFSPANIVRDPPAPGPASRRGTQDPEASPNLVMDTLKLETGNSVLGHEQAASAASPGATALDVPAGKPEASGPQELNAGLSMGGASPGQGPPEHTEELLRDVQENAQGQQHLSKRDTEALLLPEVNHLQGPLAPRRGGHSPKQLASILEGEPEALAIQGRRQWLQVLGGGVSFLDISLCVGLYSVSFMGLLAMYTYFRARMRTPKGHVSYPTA

Structure (SMILES): NC(=O)C1=CN([C@@H]2O[C@H](COP(=O)(O)OP(=O)(O)OC[C@H]3O[C@@H](n4cnc5c(N)ncnc54)[C@H](O)[C@@H]3O)[C@@H](O)[C@H]2O)C=CC1 [NADH, nicotinamide adenine dinucleotide (reduced)]
- Activity toward substrates of other known oxidases [1]: failed to stimulate

Structure (SMILES): O=c1[nH]c(=O)c2[nH]cnc2[nH]1 [xanthine]
- Activity toward substrates of other known oxidases [1]: failed to stimulate

Structure (SMILES): OC[C@H]1OC(O)[C@H](O)[C@@H](O)[C@@H]1O (stereo partly drawn) [D-glucose]
- Activity toward substrates of other known oxidases [1]: failed to stimulate

Structure (SMILES): NCc1ccccc1 [benzylamine]
- Activity toward substrates of other known oxidases [1]: failed to stimulate

Structure (SMILES): Cc1cc2nc3c(=O)[nH]c(=O)nc-3n(C[C@H](O)[C@H](O)[C@H](O)COP(=O)(O)O)c2cc1C [Authentic FMN, flavin mononucleotide]
- Activity (sulfhydryl apooxidase): 0.0 units/mL
- Restoration of apooxidase activity toward GSH (sulfhydryl apooxidase; excess FMN, pH 3 to 9, various buffer salts): did not result in any detectable restoration of activity

Structure (SMILES): NC(=O)c1ccc[n+]([C@@H]2O[C@H](COP(=O)([O-])OP(=O)(O)OC[C@H]3O[C@@H](n4cnc5c(N)ncnc54)[C@H](OP(=O)(O)O)[C@@H]3O)[C@@H](O)[C@H]2O)c1 [NADP]
- Electron acceptor, increase in absorbance at 340 nm [2]: did not act as electron acceptors

Structure (SMILES): c1cnc2c(c1)ccc1cccnc12 [o-phenanthroline]
- Change in sulfhydryl oxidase activity [3]: No activity decreases

Structure (SMILES): O=S([O-])[O-].[Na+].[Na+] [sodium sulfite]
- Kd ([4]; from spectrum 1 of FIG. 3, pH 6, 50 mM sodium phosphate): 3040 µM
- Kd ([4]; from spectrum 2 of FIG. 3, pH 6, 50 mM sodium phosphate): 2950 µM
- Reaction with sulfite (changes in visible spectrum) [5]: failed to react

Structure (SMILES): N[C@@H](CS)C(=O)O [Cysteine]
- kcat (app)/Km (app) (head is drawing 1) [1]: 230 min^-1 M^- 1
- kcat (app) [1]: 166.2 s⁻¹
- Km [1]: 43 mM

Structure (SMILES): NCCCC[C@@H](N)C(=O)O [D-lysine]
- Activity toward substrates of other known oxidases [1]: failed to stimulate

Structure (SMILES): NCCCC[C@H](N)C(=O)O [L-lysine]
- Activity toward substrates of other known oxidases [1]: failed to stimulate

Structure (SMILES): N[C@@H](CCC(=O)N[C@@H](CS)C(=O)NCC(=O)O)C(=O)O [Glutathione]
- kcat (app)/Km (app) (head is drawing 1) [1]: 26,000 min^-1 M^- 1
- kcat (app) [1]: 131.2 s⁻¹
- Km [1]: 0.3 mM

Structure (SMILES): Cc1cc2nc3c(=O)[nH]c(=O)nc-3n(C[C@H](O)[C@H](O)[C@H](O)COP(=O)(O)OP(=O)(O)OC[C@H]3O[C@@H](n4cnc5c(N)ncnc54)[C@H](O)[C@@H]3O)c2cc1C [Authentic FAD, flavin adenine dinucleotide]
- Activity (sulfhydryl apooxidase): 0.58 units/mL

Structure (SMILES): NC(=O)c1ccc[n+]([C@@H]2O[C@H](COP(=O)([O-])OP(=O)(O)OC[C@H]3O[C@@H](n4cnc5c(N)ncnc54)[C@H](O)[C@@H]3O)[C@@H](O)[C@H]2O)c1 [NAD]
- Electron acceptor, increase in absorbance at 340 nm [2]: did not act as electron acceptors

Structure (SMILES): NC(=O)C1=CN([C@@H]2O[C@H](COP(=O)(O)OP(=O)(O)OC[C@H]3O[C@@H](n4cnc5c(N)ncnc54)[C@H](OP(=O)(O)O)[C@@H]3O)[C@@H](O)[C@H]2O)C=CC1 [NADPH, nicotinamide adenine dinucleotide phosphate (reduced)]
- Activity toward substrates of other known oxidases [1]: failed to stimulate

Structure (SMILES): Oc1cccc2cccnc12 [8-hydroxyquinoline]
- Change in sulfhydryl oxidase activity [3]: No activity decreases

Structure (SMILES): Oc1ccccc1O [catechol]
- Activity toward substrates of other known oxidases [1]: failed to stimulate

Structure (SMILES): OCCS [2-Mercaptoethanol]
- kcat (app)/Km (app) (head is drawing 1) [1]: 26 min^-1 M^- 1
- kcat (app) [1]: 145.2 s⁻¹

Structure (SMILES): NCCCCN [putrescine]
- Activity toward substrates of other known oxidases [1]: failed to stimulate

Structure (SMILES): O[C@H](CS)[C@H](O)CS (racemic) [Dithiothreitol]
- kcat (app)/Km (app) (head is drawing 1) [1]: 110 min^-1 M^- 1
- kcat (app) [1]: 119 s⁻¹
- Km [1]: 66 mM

Structure (SMILES): O=C(CO)[C@@H](O)[C@H](O)[C@H](O)CO [D-fructose]
- Activity toward substrates of other known oxidases [1]: failed to stimulate
